Measurements: patent US6555091B1, “Polypeptide capable of reacting with antibodies of patients suffering from multiple sclerosis and uses” (Bio Merieux, priority 1997, dated 2003)
No end group written: not given here.

System: IgG of sera from MS patients and healthy individuals
Experiment: ELISA of biotinylated synthetic peptides, IgG response of individual human sera
Format: binding
Conditions: for MEAN / OD 1 / OD 2 / OD 3 / BASELINE (mark: above cut-off): 1/100
Protocol: Depending on the information obtained from the preceding examples, the hexapeptides SEQ ID NO: 3 and SEQ ID NO: 4 were synthesized and biotinylated according to the method described in Patent Application No. EP 93420183 with the following modifications: the peptide still bound to the resin is selectively deprotected at the N-terminal position. After overnight incubation with the biotin-NHS at 50% in DMF, the peptide is then cleaved from the resin and treated as described in the patent cited above.
The wells of a Maxisorb (trade name, Nunc) microtiter plate are saturated with 100 μl of a 50 mM NaHCO3 solution, pH 9.6, containing 10 μg/ml of streptavidin for 2 hours at 37° C. The plate is washed with TBS/0.05% Tween 20 buffer. The wells are then saturated with 250 μl of wash buffer supplemented with 10% goat serum for 1 hour at 37° C. and then washed as described above.
The sera to be analyzed are diluted 1/100 in saturation buffer, supplemented with 0.05% Tween 20 and incubated for 2 hours at 37° C. After washing, a solution of peroxidase-labeled anti-human immunoglobulin G goat antibody conjugate (marketed by Jackson Immuno Research Laboratories Inc.) is added at the dilution of 1/10,000 and the plates are incubated for 1 hour at 37° C. After washes, the ortho-phenylenediamine (OPD) substrate is added and the reaction is stopped after 10 minutes by adding 50 μl of H2SO4. The optical density is read at 492 nm.
In a test carried out with 1/100 dilutions of 11 English sera from MS patients at the remission stage and 4 negative English sera, the peptides SEQ ID NOs: 3 and 4 are recognized by 4 sera out of 11 which give a positive IgG signal compared with the negative serum which gave the highest signal.

[1] = IgG, serum 33/6 (MS+, remission)
[2] = IgG, serum 33/8 (MS+, remission)
[3] = IgG, serum 33/18 (MS+, remission)
[4] = IgG, serum No. 12 (MS−, healthy)
[5] = IgG, serum No. 13 (MS−, healthy)
[6] = IgG, serum No. 14 (MS−, healthy)
[7] = IgG, serum No. 15 (MS−, healthy)
[8] = IgG, serum QS 2 (MS+, remission)
[9] = IgG, serum QS 3 (MS+, remission)
[10] = IgG, serum QS 4 (MS+, remission)
[11] = IgG, serum QS 6 (MS+, remission)
[12] = IgG, serum QS 7 (MS+, remission)
[13] = IgG, serum QS 8 (MS+, remission)
[14] = IgG, serum QS 11 (MS+, remission)
[15] = IgG, serum QS 12 (MS+, remission)

With LQQAVF [SEQ ID NO: 3] the “MS sera giving a positive IgG signal compared with the negative serum which gave the highest signal” value (1/100 dilutions of 11 sera from MS patients at the remission stage, 4 negative sera) was 4 sera out of 11, the “MS sera recognizing the peptide significantly, cut-off mean of negative sera plus 3 times the standard deviation” value (IgG, 1/100 dilutions of 11 MS remission sera, 4 negative sera) was 3 sera out of 11 and the BASELINE (IgG, cut-off, mean of negative sera plus 3 times the standard deviation) was 815 optical density (×1000). The MEAN [1] was 587 optical density (×1000), the “OD 1” value [1] was 535 optical density (×1000) and the “OD 2” value [1] was 599 optical density (×1000). For the same substance, the “OD 3” value [1] was 626 optical density (×1000), the “BASELINE (mark: above cut-off)” value [2] was “X (the mean of the values obtained with the negative sera is calculated and 3 times the standard deviation is added in order to determine a cut-off)” and the MEAN [2] was 1067 optical density (×1000). The “OD 1” value [2] was 990 optical density (×1000), the “OD 2” value [2] was 941 optical density (×1000) and the “OD 3” value [2] was 1271 optical density (×1000). For the same substance, the MEAN [3] was 395 optical density (×1000), the “OD 1” value [3] was 601 optical density (×1000) and the “OD 2” value [3] was 339 optical density (×1000). The “OD 3” value [3] was 246 optical density (×1000), the MEAN [4] was 639 optical density (×1000) and the “OD 1” value [4] was 550 optical density (×1000). For the same substance, the “OD 2” value [4] was 640 optical density (×1000), the “OD 3” value [4] was 726 optical density (×1000) and the MEAN [5] was 377 optical density (×1000). For the same substance, the “OD 1” value [5] was 366 optical density (×1000), the “OD 2” value [5] was 369 optical density (×1000) and the “OD 3” value [5] was 407 optical density (×1000). For the same substance, the MEAN [6] was 307 optical density (×1000), the “OD 1” value [6] was 367 optical density (×1000) and the “OD 2” value [6] was 285 optical density (×1000). The “OD 3” value [6] was 270 optical density (×1000), the MEAN [7] was 452 optical density (×1000) and the “OD 1” value [7] was 439 optical density (×1000). For the same substance, the “OD 2” value [7] was 496 optical density (×1000), the “OD 3” value [7] was 422 optical density (×1000) and the MEAN [8] was 309 optical density (×1000). The “OD 1” value [8] was 294 optical density (×1000), the “OD 2” value [8] was 339 optical density (×1000) and the “OD 3” value [8] was 293 optical density (×1000). For the same substance, the MEAN [9] was 727 optical density (×1000), the “OD 1” value [9] was 618 optical density (×1000) and the “OD 2” value [9] was 784 optical density (×1000). For the same substance, the “OD 3” value [9] was 779 optical density (×1000), the “BASELINE (mark: above cut-off)” value [10] was “X (the mean of the values obtained with the negative sera is calculated and 3 times the standard deviation is added in order to determine a cut-off)” and the MEAN [10] was 1346 optical density (×1000). For the same substance, the “OD 1” value [10] was 1161 optical density (×1000), the “OD 2” value [10] was 1293 optical density (×1000) and the “OD 3” value [10] was 1583 optical density (×1000). The MEAN [11] was 325 optical density (×1000), the “OD 1” value [11] was 306 optical density (×1000) and the “OD 2” value [11] was 263 optical density (×1000). The “OD 3” value [11] was 407 optical density (×1000), the “BASELINE (mark: above cut-off)” value [12] was “X (the mean of the values obtained with the negative sera is calculated and 3 times the standard deviation is added in order to determine a cut-off)” and the MEAN [12] was 1355 optical density (×1000). The “OD 1” value [12] was 1307 optical density (×1000), the “OD 2” value [12] was 1298 optical density (×1000) and the “OD 3” value [12] was 1461 optical density (×1000). For the same substance, the MEAN [13] was 615 optical density (×1000), the “OD 1” value [13] was 664 optical density (×1000) and the “OD 2” value [13] was 635 optical density (×1000). For the same substance, the “OD 3” value [13] was 545 optical density (×1000), the MEAN [14] was 235 optical density (×1000) and the “OD 1” value [14] was 429 optical density (×1000). The “OD 2” value [14] was 169 optical density (×1000), the “OD 3” value [14] was 108 optical density (×1000) and the MEAN [15] was 398 optical density (×1000). For the same substance, the “OD 1” value [15] was 405 optical density (×1000), the “OD 2” value [15] was 472 optical density (×1000) and the “OD 3” value [15] was 316 optical density (×1000).
